Here are results for 1 compound from patent publication US20130131008A1, “LIPOPHILIC MONOPHOSPHORYLATED DERIVATIVES AND NANOPARTICLES” (BOARD OF REGENTS, THE UNIVERSITY OF TEXAS SYSTEM, priority 2011, published 2013).

One assay concerns CCRF-CEM/dCK−/− cells. The experiment in a line: In vitro cytotoxicity assay (MTT), 72 h, dCK deficient cells. It is filed as cell-based, human. The text has this: Human leukemia cell line CCRF-CEM (CCL-119), human pancreatic cancer cell lines PANC-1 (CRL-1469), MIA PaCa-2 (CRL-1420), and BxPC-3 (CRL-1687), human breast adenocarcinoma cell line MCF-7 (HTB-22), and mouse lung cancer cell line TC-1 (CRL-2785) were from the American Type Culture Collection (Rockville, Md.). CCRF-CEM-AraC-8C cells (hENT1 deficient) and CCRF-CEM/dCK^−/− cells (dCK deficient) were kindly provided by Dr. Buddy Ullmann (Oregon Health & Science University, Portland, Oreg.) and Dr. Margaret Black (Washington State University, Pullman, Wash.), respectively. L1210 wt and L1210 10K were kindly supplied by Dr. Lars Petter Jordheim (Université Claude Bernard Lyon I, Lyon, France). TC-1-GR cells were previously developed in our lab. CCRF-CEM, CCRF-CEM-AraC-8C, CCRF-CEM/dCK^−/−, L1210 wt, L1210 10K, TC-1, and TC-1-GR cells were cultured in RPMI 1640 medium. MCF-7 and PANC-1 cells were cultured in Dulbecco's modified Eagle medium (DMEM), MIA PaCa-2 cells were cultured in DMEM medium with 2.5% horse serum. All media were supplemented with 10% fetal bovine serum (FBS), 100 U/mL of penicillin, and 100 μg/mL of streptomycin (all from Invitrogen, Carlsbad, Calif.).
Cells (5,000/well) were seeded in 96-well plates. After overnight incubation, they were treated with various concentrations of gemcitabine HCl, gemcitabine derivatives, or gemcitabine derivatives in nanoparticles at 37° C., 5% CO2. TC-1 and TC-1-GR cells were incubated for 48 h. CCRF-CEM, CCRF-CEM-AraC-8C, CCRF-CEM/dCK^−/−, L1210 wt, L1210 10K, and MCF-7 cells were incubated for 72 h, and MIA PaCa-2 and PANC-1 for 96 h. […] The number of viable cells after the incubation was determined using an MTT assay. […] Absorbance was measured using a BioTek Synergy™ HT Multi-Mode Microplate Reader (BioTek Instruments, Winooski, Vt.) at 570 nm and 630 nm. The fraction of affected (dead) cells (Fa) and the fraction of unaffected (live) cells (Fu) at every dose were calculated, and the Log(Fa/Fu) values were plotted against the Log(concentration of gemcitabine). […]

For assay [1], the system named is TC-1 mouse lung cancer cells (s.c. tumors). Put plainly: Anti-tumor activity of PLGA-GemC18-NPs in TC-1 tumor-bearing mice (Example 19). In kind it is in vivo. To be noted: C57BL/6 mice, i.v. twice a week from day 11, 150 μg GemC18 per mouse per dose or molar equivalent gemcitabine HCl. As for the experimental part: The anti-tumor activity of the PLGA-GemC18-NPs was evaluated in female C57BL/6 mice (18-20 g, 6-8 weeks, n=4-5) that were subcutaneously (s.c.) injected with TC-1 mouse lung cancer cells (ATCC # CRL-2785, 5×10^5 cells/mouse) in the right flank. Mouse hair was carefully trimmed at the injection site 1 day prior to the injection. PLGA-GemC18-NPs, GemC18-free NP (PLGA-NPs), gemcitabine hydrochloride (HCl) (U.S. Pharmacopeia; Rockville, Md.) and sterile mannitol (5%, w/v) were intravenously (i.v) injected starting on day 11, twice a week until the end of the study. The dose of the GemC18 was 150 μg per mouse per dose, or the molar equivalent dose for gemcitabine HCl. Tumor size was determined 2-3 times a week and calculated using the formulas: diameter (mm)=[length+width]/2.

The structures appear in SMILES notation.

One may read the IC50 as the concentration needed to halve the response being measured. Consider `Cl.Nc1ccn([C@@H]2O[C@H](CO)[C@@H](O)C2(F)F)c(=O)n1` [Gemcitabine HCl, 2′,2′-difluorodeoxycytidine HCl, reference compound], for which the “Ratio of IC50 in CCRF-CEM/dCK−/− to that in CCRF-CEM” value in the assay with CCRF-CEM/dCK−/− cells is 82,897. For the same compound, the IC50 in the assay on CCRF-CEM/dCK−/− cells (Homo sapiens, CCRF-CEM, MTT, 72 h incubation, dCK deficient) is 240 ± 29 µM. For the same compound, the “TC-1 tumor growth (tumor diameter)” value in assay [1] was “only slightly delayed the TC-1 tumor growth”.
